# Laboratory results taken from US6562824B2, “Dihydropyridine soft drugs, and related compositions and methods” (Ortho-McNeil Pharmaceutical, Inc., priority 2000, dated 2003).
# Target: T1, Calcium Channel (3H-nitrendipine binding site, heart membranes) (Oryctolagus cuniculus, UniProt P15381)
# T1 construct: from tissue; host or cells: rabbit heart membrane preparation
# Assay: Assay for Inhibition of Nitrendipine Binding (3H-nitrendipine, rabbit heart membranes)
# Conditions: Table 1, Formula Ii compounds, 3H-nitrendipine 0.05-0.50 nM, 90 minutes
# Method: Female, New Zealand white rabbits (1-2 kg) are sacrificed by cervical dislocation, and the heart is immediately removed, cleaned and chopped into small pieces. The tissue is homogenized in 5× times volume of 0.05M Hepes buffer, pH 7.4. The homogenate is centrifuged at 4000g for 10 minutes, and the supernatant is re-centrifuged at 42,000× g for 90 minutes. The resulting membrane pellet is resuspended (0.7 ml/g weight) in 0.05M Hepes, pH 7.4 and stored at […] until used. Each tube of the binding assay contains ^3H-nitrendipine (0.05-0.50 nM), buffer, membranes (0.10 ml), and test compound in a total volume of 1.0 ml. After 90 minutes at 4≦ C., the bound nitrendipine is separated from the unbound by filtration on Whatman GF/C filters. After rinsing, the filters are dried and counted in a liquid scintillation counter.
# Non-specific binding of ^3H-nitrendipine (that amount bound in the presence of excess unlabelled nitrendipine) is subtracted from the total bound to obtain specifically bound radiolabeled nitrendipine. The amount of specifically bound nitrendipine in the presence of a test compound is compared to that amount bound in the absence of a compound. A percent displacement (or inhibition) can then be calculated.
# T1 sequence (P15381 whole entry): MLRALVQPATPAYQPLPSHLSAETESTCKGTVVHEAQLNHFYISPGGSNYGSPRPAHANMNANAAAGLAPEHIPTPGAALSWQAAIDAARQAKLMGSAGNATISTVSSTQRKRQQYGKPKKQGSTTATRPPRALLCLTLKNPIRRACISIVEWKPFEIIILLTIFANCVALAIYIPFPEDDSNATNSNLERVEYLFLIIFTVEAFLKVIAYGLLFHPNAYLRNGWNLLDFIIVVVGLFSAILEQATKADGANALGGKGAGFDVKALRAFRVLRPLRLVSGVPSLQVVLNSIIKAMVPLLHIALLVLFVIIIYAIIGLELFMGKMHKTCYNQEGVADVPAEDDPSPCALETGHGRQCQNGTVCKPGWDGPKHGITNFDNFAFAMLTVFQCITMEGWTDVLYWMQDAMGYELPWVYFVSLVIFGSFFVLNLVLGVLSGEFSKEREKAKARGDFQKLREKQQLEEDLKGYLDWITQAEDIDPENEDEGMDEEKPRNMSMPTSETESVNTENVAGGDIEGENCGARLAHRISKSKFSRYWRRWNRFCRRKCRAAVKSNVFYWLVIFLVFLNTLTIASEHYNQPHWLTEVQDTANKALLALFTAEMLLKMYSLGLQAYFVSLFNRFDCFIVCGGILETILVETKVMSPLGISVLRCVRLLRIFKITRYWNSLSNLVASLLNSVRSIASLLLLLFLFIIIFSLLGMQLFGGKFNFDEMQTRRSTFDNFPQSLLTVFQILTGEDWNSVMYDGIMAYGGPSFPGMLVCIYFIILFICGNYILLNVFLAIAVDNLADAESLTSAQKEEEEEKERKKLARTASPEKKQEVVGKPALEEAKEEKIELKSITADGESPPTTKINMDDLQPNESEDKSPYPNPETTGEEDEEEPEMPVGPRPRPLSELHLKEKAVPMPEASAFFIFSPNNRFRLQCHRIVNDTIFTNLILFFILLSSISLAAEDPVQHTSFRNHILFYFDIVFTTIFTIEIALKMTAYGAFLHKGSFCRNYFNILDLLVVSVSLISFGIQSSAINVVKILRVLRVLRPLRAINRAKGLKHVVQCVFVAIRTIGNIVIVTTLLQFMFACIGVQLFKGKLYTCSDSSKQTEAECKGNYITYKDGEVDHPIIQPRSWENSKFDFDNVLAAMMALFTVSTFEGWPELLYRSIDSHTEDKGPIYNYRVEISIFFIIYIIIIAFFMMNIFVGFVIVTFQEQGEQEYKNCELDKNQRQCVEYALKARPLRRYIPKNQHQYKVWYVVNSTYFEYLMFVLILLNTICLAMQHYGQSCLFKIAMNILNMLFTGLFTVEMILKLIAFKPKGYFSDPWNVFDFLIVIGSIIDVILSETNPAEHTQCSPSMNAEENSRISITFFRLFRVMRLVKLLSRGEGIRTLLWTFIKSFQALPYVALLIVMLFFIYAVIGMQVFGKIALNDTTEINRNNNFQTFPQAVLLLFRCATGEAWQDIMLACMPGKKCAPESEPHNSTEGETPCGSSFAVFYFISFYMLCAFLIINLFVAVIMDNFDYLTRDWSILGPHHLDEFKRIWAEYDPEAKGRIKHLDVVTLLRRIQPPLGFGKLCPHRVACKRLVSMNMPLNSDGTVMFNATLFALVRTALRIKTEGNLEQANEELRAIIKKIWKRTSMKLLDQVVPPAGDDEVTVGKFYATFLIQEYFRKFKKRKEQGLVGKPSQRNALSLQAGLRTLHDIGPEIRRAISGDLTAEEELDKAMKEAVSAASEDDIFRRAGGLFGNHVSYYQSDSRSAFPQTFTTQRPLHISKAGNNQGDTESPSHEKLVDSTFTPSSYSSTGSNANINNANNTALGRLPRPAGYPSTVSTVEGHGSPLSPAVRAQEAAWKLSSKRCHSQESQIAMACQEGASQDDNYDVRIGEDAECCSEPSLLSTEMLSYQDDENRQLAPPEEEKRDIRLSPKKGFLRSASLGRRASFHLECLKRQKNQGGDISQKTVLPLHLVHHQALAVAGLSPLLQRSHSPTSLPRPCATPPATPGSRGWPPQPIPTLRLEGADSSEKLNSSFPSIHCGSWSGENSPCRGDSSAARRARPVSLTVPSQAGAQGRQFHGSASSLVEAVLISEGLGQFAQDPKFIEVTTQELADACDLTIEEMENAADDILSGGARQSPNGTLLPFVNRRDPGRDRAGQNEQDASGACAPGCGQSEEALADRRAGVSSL
row,SMILES,IC50 [nM]
1,CC1=C(C(=O)OCCOC(=O)C(Cc2ccccc2)NC(=O)c2ccccc2)C(c2c(F)cccc2Cl)C2=C(CS(=O)(=O)CCS2(=O)=O)N1 (centres unmarked) [Compound 38],358
2,CC1=C(C(=O)OCCOC(=O)C2CCOC2=O)C(c2c(F)cccc2Cl)C2=C(CS(=O)(=O)CCS2(=O)=O)N1 (centres unmarked) [Compound 62],19400
3,CC1=C(C(=O)OC2CCOC2=O)C(c2cccc(Cl)c2Cl)C2=C(CS(=O)(=O)CCS2(=O)=O)N1 (centres unmarked) [Compound 43],456
4,CC1=C(C(=O)OCCOC(=O)C(Cc2ccccc2)N(C)C)C(c2c(F)cccc2Cl)C2=C(CS(=O)(=O)CCS2(=O)=O)N1 (centres unmarked) [Compound 45],541
5,CC1=C(C(=O)OCCOC(=O)CCN2CCCCC2)C(c2c(F)cccc2Cl)C2=C(CS(=O)(=O)CCS2(=O)=O)N1 (centres unmarked) [Compound 63],49000
6,"CC1=C(C(=O)OCCOC(=O)C(N)CCCCN)C(c2c(F)cccc2Cl)C2=C(CS(=O)(=O)CCS2(=O)=O)N1 (single isomer, unassigned) [Compound 64]",51000
7,CC1=C(C(=O)OCCOC(=O)c2cccnc2)C(c2c(F)cccc2Cl)C2=C(CS(=O)(=O)CCS2(=O)=O)N1 (centres unmarked) [Compound 44],505
8,CC1=C(C(=O)OCCOC(=O)C(NC(=O)OC(C)(C)C)C(C)C)C(c2c(F)cccc2Cl)C2=C(CS(=O)(=O)CCS2(=O)=O)N1 (centres unmarked) [Compound 40],405
9,CC1=C(C(=O)OCCOC(=O)C(C)C)C(c2c(F)cccc2Cl)C2=C(CS(=O)(=O)CCS2(=O)=O)N1 (centres unmarked) [Compound 56],2320

# Now from value to compound:
row,IC50 [nM],SMILES
1,61,CC1=C(C(=O)OCCOC(=O)c2cccc(C#N)c2)C(c2c(F)cccc2Cl)C2=C(CS(=O)(=O)CCS2(=O)=O)N1 (centres unmarked) [Compound 18]
2,48,CC1=C(C(=O)OCCOC(=O)CCc2ccccc2)C(c2c(F)cccc2Cl)C2=C(CS(=O)(=O)CCS2(=O)=O)N1 (centres unmarked) [Compound 12]
3,48,"CC1=C(C(=O)OCCOC(=O)c2ccc(C(F)(F)F)cc2)C(c2c(F)cccc2Cl)C2=C(CS(=O)(=O)CCS2(=O)=O)N1 (centres unmarked) [Compound 11, 5H-[1,4]dithiepino[6,5-b]pyridine-8-carboxylic acid, 9-(2-chloro-6-fluorophenyl)-2,3,6,9-tetrahydro-7-methyl-, 2-[[4-(trifluoromethyl)benzoyl]oxy]ethyl ester, 1,1,4,4-tetraoxide]"
4,69,COc1ccc(C(=O)OCCOC(=O)C2=C(C)NC3=C(C2c2c(F)cccc2Cl)S(=O)(=O)CCS(=O)(=O)C3)cc1 (centres unmarked) [Compound 20]
5,175,CC1=C(C(=O)OCCOC(=O)C(CCCCNC(=O)OCc2ccccc2)NC(=O)OC(C)(C)C)C(c2c(F)cccc2Cl)C2=C(CS(=O)(=O)CCS2(=O)=O)N1 (centres unmarked) [Compound 29]
6,72,CC1=C(C(=O)OCc2oc(=O)oc2C)C(c2cccc(Cl)c2Cl)C2=C(CS(=O)(=O)CCS2(=O)=O)N1 (centres unmarked) [Compound 21]

# Same assay, conditions: Table 2, Formula Ij compounds, 3H-nitrendipine 0.05-0.50 nM, 90 minutes
row,IC50 [nM],SMILES
1,65,"CC1=C(C(=O)OCCOC(=O)C2CCCCC2)C(c2c(F)cccc2Cl)C2=C(CS(=O)(=O)CCCS2(=O)=O)N1 (centres unmarked) [Compound 70, 2H,6H-[1,5]dithiocino[3,2-b]pyridine-9-carboxylic acid, 10-(2-chloro-6-fluorophenyl)-3,4,7,10-tetrahydro-8-methyl-, 2-[(cyclohexylcarbonyl)oxy]ethyl ester, 1,1,5,5-tetraoxide]"
2,49,"CC1=C(C(=O)OCCOC(=O)c2cccc(C#N)c2)C(c2c(F)cccc2Cl)C2=C(CS(=O)(=O)CCCS2(=O)=O)N1 (centres unmarked) [Compound 68, 2H,6H-[1,5]dithiocino[3,2-b]pyridine-9-carboxylic acid, 10-(2-chloro-6-fluorophenyl)-3,4,7,10-tetrahydro-8-methyl-, 2-[(3-cyanobenzoyl)oxy]ethyl ester, 1,1,5,5-tetraoxide]"
